Measured values as given in US6375944B1, “Methods and compositions for enhancing the immunostimulatory effect of interleukin-12” (The Wistar Institute of Anatomy and Biology, priority 1998, dated 2002).
Several values for one entry are separate records, joined by “and”; a condition that tells them apart may be missing. Equal entries are not always repeated.

Columns and labels:
SCK cells [1] = assay: SCK.GM cell vaccination followed by SCK tumor cell challenge; assay type: in vivo, A/J mice; conditions: for Effect on SCK.GM-induced protection: mice not treated with rmIL-12, data not shown
Excerpt: A. Female A/J mice were vaccinated with 10^6 irradiated SCK.GM cells suspended in PBS at 10^7 trypan blue-excluding cells/ml. Cells were irradiated with 6000 rads from a ^137Cs source, and mice were vaccinated with 10^6 cells s.c. (day 0). […] Vaccinated and naive A/J mice were challenged fourteen days after vaccination with 2.5×10^4 trypan blue-excluding SCK cells in the opposite flank to assay for the presence of tumor immunity. Tumorigenesis was scored daily.

SCK cells [2] = assay: Irradiated wild-type SCK cell vaccination followed by SCK tumor cell challenge; assay type: in vivo, A/J mice; conditions: for mice that developed tumors: given with irradiated SCK cells and rmIL-12, challenged on day 14
Excerpt: Female A/J mice (8 mice per group) were vaccinated with 10^6 irradiated SCK cells and received either PBS, rmIL-12, rmIL-12+L-NAME or rmIL-12 and D-NAME on days 0-4 and 7-11. Mice were challenged fourteen days after vaccination with 2.5×10^4 SCK cells in the opposite flank. Tumorigenesis was scored daily, as described above.

SCK cells [3] = assay: Tumor cell rechallenge in mice with established SCK immunity; assay type: in vivo, A/J mice; conditions: for Prevention of rmIL-12 impairment of immune rejection: given with rmIL-12 therapy, established SCK immunity; for mice that developed tumors: rmIL-12 treated mice with established SCK immunity, data not shown
Excerpt: Thus, L-NAME prevents rmIL-12 suppression of established antitumor immune responses.

SCK tumors = assay: Antitumor activity of rmIL-12 against SCK tumors (tumorigenesis scored daily); assay type: in vivo, A/J mice
Protocol: Female A/J mice were injected with 2.5×10^4 SCK cells and either PBS, rmIL-12, rmIL-12+L-NAME or rmIL-12 and D-NAME on days 0-4 and 7-11. Tumorigenesis was scored daily, as described above.

NO production = NO production measured as nitrite in stimulated cell supernatants by the Greiss assay; assay type: cell-based; design: dose or concentration left out as unconfirmed; conditions: cocultures of adherent cells from rmIL-12 treated mice and nonadherent control cells; compared to D-NMMA; two independent measurements
Protocol: (§1) Cocultures were established from splenic adherent and nonadherent cells of PBS-treated mice or from the adherent cells of rmIL-12-treated mice and nonadherent cells of PBS-treated mice. Antibodies XMG6 (to IFNγ), XT22 (to TNFα), AE5 (to IL-10) and C17.8 (to IL-12) were added to a final concentration of […] in cocultures containing adherent cells from spleen of rmIL-12-treated mice. An inhibitor of inducible nitric oxide synthase (iNOS), L-NMMA (Sigma), was added to cocultures of adherent cells from rmIL-12 treated mice and nonadherent cells from control mice at a final concentration of […]. Alternatively, D-NMMA (Sigma), a noninhibitory isoform of L-NMMA, was added to other cocultures as a control.
NO production was measured as nitrite concentration in stimulated cell supernatants by the Greiss assay [Green, L. C. et al, Anal. Biochem 126:131 (1982)]. Supernatant (100 μl) was added to 96 well plates; 100 μl of a 1:1 mixture of 1% sulfanilamide dihydrochloride in 2.5% H3PO4 and 0.1% naphthylethylenediamine dihydrochloride in 2.5% H3PO4 was then added to samples. Plates were incubated at room temperature for 10 minutes and A540 was determined using a microplate reader with reference to sodium nitrite standard curves. S-nitroso-N-acetyl-penillamine (SNAP, Sigma), an NO donor, was used as a acellular source of NO and was added to splenocytes from HKB-vaccinated C57BL/6 mice.

splenocytes = assay: Mitogen and alloantigen stimulation of splenocytes (3H-thymidine incorporation), whole or adherent/nonadherent cocultures; assay type: cell-based, mice; design: Effect on mitogenesis / inhibition of mitogenic responses: dose or concentration left out as unconfirmed
Protocol: The mitogen and alloantigen stimulation of splenocytes assay was performed as follows: In vitro mitogenic stimulation of splenocytes with […] Con A or 100 U/ml rmIL-12 was performed as described [Kurzawa, cited above]. Proliferative responses to allogeneic antigens (mixed lymphocyte reaction, MLR) was measured when splenocytes from the mice were stimulated with 10^5 mitomycin treated A/J splenocytes. Splenocyte fractionation was performed by allowing 10^5 splenocytes to adhere for 90 minutes in 96 well plates, after which the nonadherent cells were removed and cocultured with adherent cells from different wells for assay. When added, antibodies (XMG6 for IFNγ, XT22 for TNFα, AE5 for IL-10 and C17.8 for IL-12 ) were used at […] final concentration. After 72 hours exposure to mitogen, cultures were pulsed with 1 μCi^3H-thymidine for 16 hours, cells were harvested and ^3H incorporation was measured by scintillation counting. Supernatants from cultures assayed for IFNγ by radioimmunoassay (RIA) (using antibodies AN18 and XMG6 [Wysocka, M. et al. 1995 Eur. J. Immunol. 25:672] were harvested 24 or 72 hours after stimulation.
A. Splenocytes from rmIL-12- and PBS-treated C57BL/6 mice were fractioned by adherence to 96 well plastic plates for 90 minutes. The cells were reconstituted in various combinations of adherent and nonadherent cells by overlaying nonadherent cells on the adherent cells. These cocultures were then stimulated with either 2.5 μg/ml Con A, 100 U/ml IL-12, or 10^5 mitomycin C treated A/J (H-2A) splenocytes, as described in the mitogen/alloantigen assay of Example 1.
B. Cocultures were established from splenic adherent and nonadherent cells of PBS-treated mice or from the adherent cells of rmIL-12-treated mice and nonadherent cells of PBS-treated mice. Antibodies XMG6 (to IFNγ), XT22 (to TNFα), AE5 (to IL-10) and C17.8 (to IL-12 ) were added to a final concentration of […] in cocultures containing adherent cells from spleen of rmIL-12-treated mice, also according to the assay described in Example 1.
as §1

[4] = SCK-vaccinated mice, at 28 days, rmIL-12 alone, or L-NAME/D-NAME given with rmIL-12

Molecule | Effect on SCK.GM-induced protection (SCK cells [1]) | level of protection (SCK cells [2]; [4]) [%] | mice that developed tumors (SCK cells [2]) [%] | Prevention of rmIL-12 impairment of immune rejection (SCK cells [3]) | mice that developed tumors (SCK cells [3]) [%] | other results
COC(=O)[C@H](N)CCCNC(=N)N[N+](=O)[O-] [D-NAME, N^ω-nitro-D-arginine methyl ester] | had no effect | 50 | 75 | not | 75 | mice that developed tumors (SCK cells [1]; SCK.GM vaccinated, given with rmIL-12, challenge 14 days after vaccination): 75%
COC(=O)[C@@H](N)CCCNC(=N)N[N+](=O)[O-] [L-NAME, N^ω-nitro-L-arginine methyl ester] | had no effect | 50 | 38 | prevented this impairment of immune rejection | 25 | median days to tumor appearance (SCK tumors; 2.5×10^4 SCK cells, treatment days 0-4 and 7-11, L-NAME given with rmIL-12, 9 days without rmIL-12): 17 days; delay of tumor appearance vs. mice given rmIL-12 alone or with D-NAME (SCK tumors; L-NAME given with rmIL-12): 3 days; Effect on SCK tumorigenesis (SCK tumors; given without rmIL-12, data not shown): had no effect on SCK tumorigenesis; delay of tumor appearance vs. untreated mice (SCK tumors; treatment started on day of SCK cell injection, L-NAME given with rmIL-12): 8 days; Prevention of rmIL-12 impairment of SCK.GM vaccine protection (SCK cells [1]; given with rmIL-12 days 0-4 and 7-11, challenge 14 days after vaccination): prevented this impairment; level of protection (SCK cells [2]; SCK-vaccinated, given with rmIL-12, at 14 days): 62%
CNC(=N)NCCC[C@H](N)C(=O)O [L-NMMA, N^G-monomethyl-L-arginine] |  |  |  |  |  | reduction of NO levels in the culture supernatant (NO production): 58% and 94%; Effect on mitogenesis (splenocytes; cocultures of adherent cells from rmIL-12 treated mice and nonadherent control cells, compared to D-NMMA): restored mitogenesis
S-nitroso-N-acetyl-penillamine [SNAP, reference compound] |  |  |  |  |  | inhibition of mitogenic responses (splenocytes; splenocytes from HKB-vaccinated C57BL/6 mice, cultures with NO levels as low as): 83-98%
